In article PMC12476087, “Loading of Dicarboxylatoplatinum(II)‐NHC Complexes in Bacterial Ghosts as an Advanced Development in Cancer Therapy” (Archiv Der Pharmazie, 2025):

Experiments:
Format in all cases: cell-based
[1] = test system: A2780wt cells; experiment: MTT assay, A2780wt cells; details: MTT assay, 72 h exposure
Description: (§1) Carboplatin, a second‐generation platinum drug commonly used as part of standard first‐line chemotherapy for ovarian carcinoma, was examined as a reference compound due to its clinical relevance. Additionally, the nonmalignant bone marrow stromal cell line HS‐5 was included as a control to assess specificity of the complexes toward cancer cells.
(§2) Unloaded BGs (4 × 10^8 EcN or 2 × 10^8 Ec NM522, which is equivalent to the highest tested BG concentration) were tested as controls.
(§3) The exponentially growing cells were seeded at a density of 8 × 10^3 cells/well (A2780wt/cis) or 1 × 10^4 cells/well (HS‐5), respectively, into clear flat‐bottom 96‐well plates in triplicates. […] After another 72 h of incubation, the cellular metabolic activity was measured as an indicator of cell viability employing an MTT assay. Hereby, 20 µL of a 5 mg/mL MTT solution was added to each well, respectively. After 3 h of incubation, the medium was discarded, and the formazan crystals formed were dissolved in DMSO for 15 min with gentle shaking. […] The OD at 620 nm was subtracted from the OD at 595 nm. The OD of the medium was subtracted to exclude the unspecific staining caused by FCS‐containing medium. Cells treated with vehicle control (0.1% DMF) only were set at 100% metabolic activity. The IC50 values were calculated with Prism 8.0 (GraphPad Software Inc., Boston, MA, USA) using nonlinear regression. Significance was evaluated via a one sample t‐test performed with Prism 8.0.

[2] = test system: A2780cis cells; experiment: MTT assay, A2780cis cells
Description: as §1, §2, §3

[3] = test system: HS‐5 cells; experiment: MTT assay, HS‐5 cells; details: 72 h exposure, nonmalignant bone marrow stromal cells
Description: as §1
The exponentially growing cells were seeded at a density of 8 × 10^3 cells/well (A2780wt/cis) or 1 × 10^4 cells/well (HS‐5), respectively, into clear flat‐bottom 96‐well plates in triplicates. Following 24 h of incubation for the adherence of the cells at 37°C in a humidified atmosphere (5% CO2/95% air), the test compounds were added. […] For the evaluation of the cell growth inhibition by the compounds loaded in BGs, the BG suspensions were directly diluted in RPMI 1640 to the desired testing concentration (25 µM). After another 72 h of incubation, the cellular metabolic activity was measured as an indicator of cell viability employing an MTT assay. Hereby, 20 µL of a 5 mg/mL MTT solution was added to each well, respectively. After 3 h of incubation, the medium was discarded, and the formazan crystals formed were dissolved in DMSO for 15 min with gentle shaking. Afterward, the optical density (OD) was measured at 595 and 620 nm, respectively on an EnSpire Multimode Plate Reader (revvity, Waltham, MA, USA). The OD at 620 nm was subtracted from the OD at 595 nm. The OD of the medium was subtracted to exclude the unspecific staining caused by FCS‐containing medium. Cells treated with vehicle control (0.1% DMF) only were set at 100% metabolic activity. The IC50 values were calculated with Prism 8.0 (GraphPad Software Inc., Boston, MA, USA) using nonlinear regression. Significance was evaluated via a one sample t‐test performed with Prism 8.0.

[4] = test system: A2780wt cells; experiment: Comet assay (intracellular DNA damage); details: 50 µM, 48 h incubation
Description: Given that platinum‐based drugs are known to commonly induce DNA damage, a comet assay was conducted using A2780wt cells. This assay detects DNA damage such as DNA single/double strand breaks and DNA fragmentation, a common feature of apoptosis. […] DMF (0.1%)‐treated cells were used as a negative control to establish baseline DNA integrity.
Cellular DNA damage can be visualized by employing a comet assay, which is a single cell gel electrophoresis assay. Hereby, A2780wt cells were seeded at a density of 2 × 10^6 into 25 cm^2 flasks. After letting the cells adhere for 24 h in a humidified atmosphere, the cell culture medium was exchanged for medium containing the respective compound. The cells were then incubated for 48 h with the platinum complexes or 4 h with etoposide, respectively. After incubation, the cell growth was stopped by removing the compound‐containing medium, washing the cells with phosphate‐buffered saline (PBS) and detaching them with a rubber policeman. The detached cells were then centrifuged at 700g for 2 min and the resulting pellet was then washed with 5 mL of PBS. After that, the cells were adjusted to a concentration of 1 × 10^6 cells/mL and were resuspended in ice cold PBS. A total of 75 µL of liquified agarose per condition was transferred onto the slide to create a base layer. This base layer was solidified by transferring the slide to 4°C for 15 min. Afterwards, 10 µL of the above‐mentioned cell suspension in PBS were mixed with 90 µL of agarose. A total of 75 µL of this was added to each base layer, respectively. This layer was also allowed to solidify at 4°C for 15 min. The slide was then transferred to a small basin which contained pre‐chilled lysis buffer (14.6 g NaCl, 20 mL EDTA solution, 10 mL lysis solution, 10 mL DMSO, 60 mL deionized H2O), where it remained for 45 min in the dark at 4°C. The lysis buffer was then aspirated and exchanged with a pre‐chilled alkaline solution (1.2 g NaOH, 0.2 mL EDTA solution, 100 mL deionized H2O), where it remained for further 30 min in the dark at 4°C. The slide was then transferred to a horizontal electrophoresis chamber which was filled with cold alkaline solution. The electrophoresis conditions were set to 1.5 V/cm and 300 mA for 20 min. After the electrophoresis, the slide was transferred into a small basin containing pre‐chilled, deionized H2O. After 2 min, the water was aspirated and this washing step was repeated twice more. After the final rinse, the slide was submerged in 70% ethanol for 5 min. Once the slide has dried, 100 µL of diluted Vista Green DNA Dye was added to each well. After 15 min of incubation, the slides were analyzed on an IX‐70 epifluorescence microscope (Olympus, Shinjuku, Japan) using a FITC filter.

[5] = test system: A2780wt cells; experiment: Annexin V/PI staining and FACS analysis, A2780wt; details: reference at 50 µM, 24 h
Description: (§4) Therefore, we aimed to evaluate the apoptosis and necrosis inducing potential of complexes 1–4 via a fluorescent‐activated cell sorting (FACS) analysis with Annexin V/propidium iodide (PI) staining in A2780wt and A2780cis cells. Cells were treated for 24 h with both the free and BG‐loaded forms of each compound at 25 µM. Carboplatin (50 µM) served as a reference.
(§5) To evaluate the mode of cell death, a FACS measurement after staining with Annexin V and PI was conducted. First, 0.3 × 10^6 A2780wt or A2780cis cells were seeded into 12‐well plates and were allowed to adhere for 24 h. The compounds were added at 25 µM, either diluted from a freshly prepared DMF stock solution (0.1% DMF) or freshly thawed when loaded in BGs. After 24 h of incubation, the cells were harvested with accutase and washed with PBS. The cells were then resuspended in 200 µL of PBS each and 1 µL of PI solution (Sigma‐Aldrich, Taufkirchen, Germany) and 1 µL of Annexin V‐FITC (MabTag GmbH, Friesoythe, Germany) were added to each sample. These were then incubated for 20 min at rt under light‐protected conditions and afterward transferred onto ice. The percentage of apoptotic cells was determined by analyzing Annexin V positive /PI negative cells using a BD LSRFortessa flow cytometer and BD FACSDiva software (both BD Biosciences, San Jose, CA, USA). The apoptosis analysis included the evaluation of early apoptosis (Annexin V positive/PI negative) and late apoptosis/necrosis (Annexin V positive /PI positive).

[6] = test system: A2780cis cells; experiment: Annexin V/PI staining and FACS analysis, A2780cis; details: reference at 50 µM, 24 h
Description: as §4, §5

[7] = test system: surface calreticulin on A2780wt cells; experiment: Immunofluorescent surface calreticulin staining, A2780wt; details: oxaliplatin at 1 µM for 24 h
Description: (§6) Oxaliplatin, a known metal‐based ICD inducer, was included for comparison.
(§7) A2780wt or A2780cis cells were seeded at a density of 1.2 × 10^5 on cover slips and allowed to adhere for 24 h. […] Subsequently, the cells were washed again three times with PBS and they were incubated after adding the secondary antibody (Alexa‐Fluor‐conjugated anti‐rabbit, 1:200), for 45 min at rt. Subsequently, the cells were washed again three times with PBS and they were mounted on slides with mounting medium. After letting them dry overnight, visualization was performed by spinning disk confocal microscopy. […] Acquired images were background subtracted, individual cells were manually segmented, and fluorescence intensity for the calreticulin staining was quantified with a FIJI software. Two repetitions of the experiment were performed, where at least 20 cells per condition were analyzed and the mean intensity of each sample was calculated, respectively.

[8] = test system: surface calreticulin on A2780cis cells; experiment: Immunofluorescent surface calreticulin staining, A2780cis; details: oxaliplatin at 1 µM for 24 h
Description: as §6, §7

`[NH2][Pt]1([NH2])[O]C(=O)C2(CCC2)C(=O)[O]1` [Carboplatin, (SP‐4‐2)‐diammine(1,1‐cyclobutanedicarboxylato)platinum(II), reference compound] was tested, and the IC50 [1] was 33.6 ± 2.1 µM, the “Resistance factor RF = IC50(A2780cis)/IC50(A2780wt)” value ([2]; 72 h) was 3.1 and the IC50 ([2]; 72 h exposure) was 104 ± 11.5 µM. For the same compound, the IC50 [3] was 24.4 ± 0.99 µM, the “intracellular DNA damage (comet formation)” value [4] was “did not show any evidence of comet formation” and the early apoptosis [5] was 7.90 ± 0.29. It also gave a late apoptosis/ necrosis [5] of 16.8 ± 0.69, an early apoptosis [6] of 6.47 ± 1.75 and a late apoptosis/ necrosis [6] of 12.6 ± 1.17.

`O=C1[O][Pt]2([NH][C@@H]3CCCC[C@H]3[NH]2)[O]C1=O` [oxaliplatin, (SP‐4‐2)‐(1R,2R‐diaminocyclohexane)oxalatoplatinum(II), reference compound] was tested, and the “x‐fold intensity of surface calreticulin compared to untreated cells” value [7] was 0.86 ± 0.24 x‐fold and the “x‐fold intensity of surface calreticulin compared to untreated cells” value [8] was 1.36 ± 0.24 x‐fold.
